In publication PMC6177136, “Hybrid topoisomerase I and HDAC inhibitors as dual action anticancer agents” (PLoS ONE, 2018):

How the values were obtained:
[1] = tested on: NCI-H460; test: Cytotoxicity assay (SRB, 72 h) NCI-H460; type: cell-based, Human; settings: Homo sapiens, NCI-H460; 72 h, SRB assay; read-out: IC50 ± SD NCI-H460
[2] = tested on: MV4-11; test: Cytotoxicity assay (MTT, 72 h) MV4-11; type: cell-based; settings: Homo sapiens, read-out: IC50 ± SD MV4-11
[3] = tested on: KM-H2; test: Cytotoxicity assay (MTT, 72 h) KM-H2; type: cell-based, Human; settings: Homo sapiens, KM-H2; 72 h, MTT assay; read-out: IC50 ± SD KM-H2
[4] = tested on: MM487; test: Cytotoxicity assay, primary mesothelioma MM487; type: cell-based, Human; settings: Homo sapiens, MM487; biphasic, 72 h, SBR assay; read-out: IC50 ± SD MM487
[5] = tested on: REC-1; test: Cytotoxicity assay (MTT, 72 h) REC-1; type: cell-based; settings: Homo sapiens, Rec1, read-out: IC50 ± SD REC-1
[6] = target: HDAC10 (Homo sapiens, UniProt Q969S8); test: HDAC profiling HDAC10; type: biochemical; settings: purified isoform, 10 concentrations from 10 μM, triplicate
Sequence of HDAC10 (Q969S8 whole entry, canonical isoform): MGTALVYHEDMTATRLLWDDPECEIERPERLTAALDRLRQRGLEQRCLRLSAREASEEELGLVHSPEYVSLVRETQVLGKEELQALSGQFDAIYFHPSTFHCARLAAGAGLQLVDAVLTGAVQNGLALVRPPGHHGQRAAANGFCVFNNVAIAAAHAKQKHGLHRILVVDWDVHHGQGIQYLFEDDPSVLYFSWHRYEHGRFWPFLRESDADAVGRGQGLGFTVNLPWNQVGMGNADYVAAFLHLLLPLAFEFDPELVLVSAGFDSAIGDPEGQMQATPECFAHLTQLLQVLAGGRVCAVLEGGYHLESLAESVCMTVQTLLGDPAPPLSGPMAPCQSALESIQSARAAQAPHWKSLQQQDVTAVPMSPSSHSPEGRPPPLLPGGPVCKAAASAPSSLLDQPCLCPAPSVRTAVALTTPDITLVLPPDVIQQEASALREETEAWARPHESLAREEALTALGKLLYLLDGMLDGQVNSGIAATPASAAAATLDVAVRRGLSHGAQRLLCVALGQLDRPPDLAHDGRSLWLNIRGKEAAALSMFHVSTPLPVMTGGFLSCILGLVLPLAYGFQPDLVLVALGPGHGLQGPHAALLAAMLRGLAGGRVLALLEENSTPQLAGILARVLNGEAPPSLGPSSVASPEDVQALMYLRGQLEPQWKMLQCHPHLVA

[7] = tested on: Jurkat-cp; test: Cytotoxicity assay (MTT, 72 h) Jurkat-cp; type: cell-based; settings: Homo sapiens, read-out: IC50 ± SD Jurkat-cp
[8] = tested on: series of human tumor cell lines; test: Antiproliferative activity, series of human tumor cell lines (summary); type: cell-based; settings: span over the cell line panel, 72 h, SRB assay, read-out: IC50 across the human tumor cell lines of Table 3
[9] = tested on: U-2932; test: Cytotoxicity assay (MTT, 72 h) U-2932; type: cell-based, Human; settings: Homo sapiens, U2932, read-out: IC50 ± SD U-2932
[10] = tested on: Acetylated Histone H4; test: Western blot, acetylation of histone H4 in NCI-H460 cells; type: cell-based, Human; settings: 24 h; SN38 0.05 μM, SAHA 5 μM, 3b and 3d 0.125–0.2–0.5 μM
Experimental: (§1) The supernatant, containing the total proteins extracts, were transferred in new vials. The protein concentration was measured by Bradford Protein Assay. Equal amounts of proteins for each sample were then resolved by SDS-PAGE and loaded on 10–12% polyacrilamide gels. The proteins were then transferred on nitrocellulose membranes. Molecular weights were estimated based upon the relative migration with molecular weight protein markers.
(§2) The non-specific binding was blocked by incubation of membranes in TBS-tween (25 mM Tris, 150 mM NaCl, 0.1% Tween 20) with 5% nonfat dry milk (BIORAD, Milan) for 60 minutes. Subsequently, the membrane was incubated overnight with primary antibodies: anti-Histone H4 (Millipore, 1:500), anti-acetyl-H4 (Santa Cruz, 1:1000) anti-p21 (Santa Cruz, 1:1000), anti-acetyl-tubulin (abcam, 1:1000), anti-α-tubulin (Sigma, 1:5000), anti β-actin (Sigma, 1:5000) and anti-Topoisomerase 1 (Santa Cruz, 1:500). After three washes with TBST blots were incubated with HRP-coniugated secondary anti-mouse and anti-rabbit (Santa Cruz, 1:5000) 1 hour at room temperature. After three washes with TBST the blots were developed with ECL substrate (GE Healthcare) and chemiluminescence detected by ChemiDoc Imaging System (Biorad). The optical density of the protein bands detected by western blotting was normalized on α -tubulin levels and analyzed by ChemiDoc software (Biorad). […]

[11] = tested on: MM288; test: Cytotoxicity assay, primary mesothelioma MM288; type: cell-based, Human; settings: Homo sapiens; epithelioid, 72 h, SBR assay; read-out: IC50 ± SD MM288
[12] = tested on: primary malignant pleural mesothelioma (MPM) cell lines; test: Primary malignant pleural mesothelioma (MPM) cell lines (summary); type: cell-based; settings: Homo sapiens, span over the cell line panel, 72 h, read-out: IC50 across primary mesothelioma cell lines (Table 7)
[13] = tested on: H2A.X; test: Western blot, H2A.X induction in NCI-H460 cells; type: cell-based, Human; settings: 24 h; SAHA 5 μM, SN38 0.05 μM, 3d 0.125–0.2–0.5 μM
Experimental: as §1
The non-specific binding was blocked by incubation of membranes in TBS-tween (25 mM Tris, 150 mM NaCl, 0.1% Tween 20) with 5% nonfat dry milk (BIORAD, Milan) for 60 minutes. Subsequently, the membrane was incubated overnight with primary antibodies: anti-Histone H4 (Millipore, 1:500), anti-acetyl-H4 (Santa Cruz, 1:1000) anti-p21 (Santa Cruz, 1:1000), anti-acetyl-tubulin (abcam, 1:1000), anti-α-tubulin (Sigma, 1:5000), anti β-actin (Sigma, 1:5000) and anti-Topoisomerase 1 (Santa Cruz, 1:500). After three washes with TBST blots were incubated with HRP-coniugated secondary anti-mouse and anti-rabbit (Santa Cruz, 1:5000) 1 hour at room temperature. After three washes with TBST the blots were developed with ECL substrate (GE Healthcare) and chemiluminescence detected by ChemiDoc Imaging System (Biorad). The optical density of the protein bands detected by western blotting was normalized on α -tubulin levels and analyzed by ChemiDoc software (Biorad).
Cells were lysed in 0.5% NP-40 and 40 μg of total proteins were loaded on NuPAGE 4–12% (Invitrogen), transferred to a nitrocellulose paper and probed with specific antibodies.

[14] = tested on: MAVER-2; test: Cytotoxicity assay (MTT, 72 h) MAVER-2; type: cell-based, Human; settings: Homo sapiens, read-out: IC50 ± SD MAVER-2
[15] = target: HDAC2 (Homo sapiens, UniProt Q92769); test: HDAC profiling HDAC2; type: biochemical; settings: purified isoform, 10 concentrations from 10 μM, triplicate
Sequence of HDAC2 (Q92769 whole entry, canonical isoform): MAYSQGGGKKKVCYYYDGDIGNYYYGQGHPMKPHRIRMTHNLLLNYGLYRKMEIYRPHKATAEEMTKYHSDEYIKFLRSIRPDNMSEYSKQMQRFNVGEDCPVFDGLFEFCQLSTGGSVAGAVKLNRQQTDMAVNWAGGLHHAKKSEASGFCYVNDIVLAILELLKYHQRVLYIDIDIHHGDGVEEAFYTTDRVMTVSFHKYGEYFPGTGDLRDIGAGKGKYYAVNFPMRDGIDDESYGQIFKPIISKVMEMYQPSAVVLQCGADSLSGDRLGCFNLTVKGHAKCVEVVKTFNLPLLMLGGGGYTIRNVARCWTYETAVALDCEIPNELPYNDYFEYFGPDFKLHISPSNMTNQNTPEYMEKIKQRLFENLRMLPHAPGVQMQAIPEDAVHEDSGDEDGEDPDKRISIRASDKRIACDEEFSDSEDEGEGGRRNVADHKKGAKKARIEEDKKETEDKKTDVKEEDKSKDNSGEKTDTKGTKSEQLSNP

[16] = tested on: Z-138; test: Cytotoxicity assay (MTT, 72 h) Z-138; type: cell-based; settings: Homo sapiens, read-out: IC50 ± SD Z-138
[17] = target: HDAC6 (Homo sapiens, UniProt Q9UBN7); test: HDAC profiling HDAC6; type: biochemical; settings: purified isoform, 10 concentrations from 10 μM, triplicate
Sequence of HDAC6 (Q9UBN7 whole entry, canonical isoform): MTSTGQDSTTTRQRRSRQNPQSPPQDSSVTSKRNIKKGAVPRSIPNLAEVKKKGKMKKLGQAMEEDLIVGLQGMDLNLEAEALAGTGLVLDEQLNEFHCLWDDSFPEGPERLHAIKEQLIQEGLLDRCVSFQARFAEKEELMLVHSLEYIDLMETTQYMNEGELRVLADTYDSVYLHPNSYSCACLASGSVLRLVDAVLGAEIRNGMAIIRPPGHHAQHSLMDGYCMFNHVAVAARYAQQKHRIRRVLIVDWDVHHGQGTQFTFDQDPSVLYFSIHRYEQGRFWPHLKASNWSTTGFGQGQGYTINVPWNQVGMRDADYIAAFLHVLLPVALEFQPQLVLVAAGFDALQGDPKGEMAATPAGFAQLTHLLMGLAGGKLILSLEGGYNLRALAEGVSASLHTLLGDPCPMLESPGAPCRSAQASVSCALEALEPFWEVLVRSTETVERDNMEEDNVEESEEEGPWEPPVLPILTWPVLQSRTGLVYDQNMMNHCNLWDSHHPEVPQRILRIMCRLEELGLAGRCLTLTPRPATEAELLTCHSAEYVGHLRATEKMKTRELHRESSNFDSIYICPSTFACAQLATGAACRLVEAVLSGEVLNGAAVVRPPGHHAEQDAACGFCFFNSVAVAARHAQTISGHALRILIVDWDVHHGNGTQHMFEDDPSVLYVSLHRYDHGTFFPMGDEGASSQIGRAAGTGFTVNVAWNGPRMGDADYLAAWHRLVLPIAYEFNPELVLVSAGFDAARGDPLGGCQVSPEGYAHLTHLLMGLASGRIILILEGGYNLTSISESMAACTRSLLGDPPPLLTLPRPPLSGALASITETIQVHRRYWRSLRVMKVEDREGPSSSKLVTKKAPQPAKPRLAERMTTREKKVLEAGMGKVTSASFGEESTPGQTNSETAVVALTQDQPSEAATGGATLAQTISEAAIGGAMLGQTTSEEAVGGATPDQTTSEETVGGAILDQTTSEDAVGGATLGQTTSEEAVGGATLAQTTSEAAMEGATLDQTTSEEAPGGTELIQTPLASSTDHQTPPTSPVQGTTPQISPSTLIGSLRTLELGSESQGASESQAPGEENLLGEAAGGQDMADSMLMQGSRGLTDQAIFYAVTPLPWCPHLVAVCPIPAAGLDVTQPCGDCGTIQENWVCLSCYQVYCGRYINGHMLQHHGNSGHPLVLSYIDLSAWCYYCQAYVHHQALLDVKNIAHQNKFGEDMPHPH

[18] = tested on: Top1; test: Western blot, Top1 expression in NCI-H460 cells; type: cell-based, Human; settings: 24 h; SAHA 5 μM, SN38 0.05 μM, 3d 0.125–0.2–0.5 μM
Experimental: as §1, §2

[19] = tested on: Capan 1; test: Cytotoxicity assay (SRB, 72 h) Capan 1; type: cell-based, Human; settings: Homo sapiens, CAPAN-1, read-out: IC50 ± SD Capan 1
[20] = tested on: MM432; test: Cytotoxicity assay, primary mesothelioma MM432; type: cell-based, Human; settings: Homo sapiens; sarcomatoid, 72 h, SBR assay; read-out: IC50 ± SD MM432
[21] = tested on: RPMI-8226; test: Cytotoxicity assay (MTT, 72 h) RPMI-8226; type: cell-based; settings: Homo sapiens, read-out: IC50 ± SD RPMI-8226
Experimental: Human tumor cells were seeded in 96-well cell culture plastic plates, allowed to attach, and exposed to scalar concentrations of the test compounds.

[22] = tested on: JECO-1; test: Cytotoxicity assay (MTT, 72 h) JECO-1; type: cell-based, Human; settings: Homo sapiens; 72 h, MTT assay; read-out: IC50 ± SD JECO-1
[23] = tested on: K 562; test: Cytotoxicity assay (MTT, 72 h) K 562; type: cell-based; settings: Homo sapiens, K562, read-out: IC50 ± SD K 562
[24] = tested on: p21; test: Western blot, p21 in NCI-H460 cells; type: cell-based, Human; settings: 24 h; SAHA 5 μM, SN38 0.05 μM, 3d 0.125–0.2–0.5 μM
Experimental: as §1, §2

[25] = tested on: DG-75; test: Cytotoxicity assay (MTT, 72 h) DG-75; type: cell-based, Human; settings: Homo sapiens, DG-75; 72 h, MTT assay; read-out: IC50 ± SD DG-75
[26] = tested on: A2780-Dx; test: Cytotoxicity assay (SRB, 72 h) A2780-Dx; type: cell-based, Human
[27] = tested on: MM473; test: Cytotoxicity assay, primary mesothelioma MM473; type: cell-based, Human; settings: Homo sapiens, MM473; epithelioid, 72 h, SBR assay; read-out: IC50 ± SD MM473

`CC[C@@]1(O)C(=O)OCc2c1cc1n(c2=O)Cc2c-1nc1ccc(O)cc1c2C=NOCCCCCC(=O)NO` [Compound 3d, 6-(10-hydroxycamptothecin-7-ylmethyleneaminooxy)-hexanoic acid hydroxyamide] showed an IC50 [1] of 0.27 ± 0.02 µM, an IC50 [2] of 2.73 ± 0.3 µM and an IC50 [3] of 0.39 ± 0.1 µM. It also gave an IC50 [4] of 0.2 ± 0.05 µM, an IC50 [5] of 0.18 ± 0.04 µM and an IC50 [6] of 0.224 µM. For the same compound, the IC50 [7] was 0.23 ± 0.05 µM, the IC50 [8] was 0.03 to 0.4 µM and the IC50 [9] was 0.044 ± 0.01 µM. The “accumulation of acetylated histone H4” value [10] was “H4 and tubulin acetylation in a dose dependent manner”, the IC50 [11] was 0.48 ± 0.1 µM and the IC50 [12] was 0.05 to 11 µM. The “H2A.X induction (DNA damage)” value [13] was “DNA damage at a dose corresponding to its IC80, confirmed by H2A.X induction”, the IC50 [14] was 0.012 ± 0.001 µM and the IC50 [15] was 0.0933 µM. For the same compound, the IC50 [16] was 0.006 ± 0.001 µM, the IC50 [17] was 0.00156 µM and the “expression of Top1” value [18] was “drastically reduced the expression of Top1”. For the same compound, the IC50 [19] was 0.035 ± 0.002 µM, the IC50 [20] was 0.16 ± 0.03 µM and the IC50 [21] was 4.1 ± 1.4 µM. The IC50 [22] was 0.023 ± 0.006 µM, the IC50 [23] was 0.94 ± 0.2 µM and the “expression of p21” value [24] was “activated the expression of p21”. For the same compound, the IC50 [25] was 1.9 ± 0.2 µM, the “RI (Resistance Index)” value ([26]; A2780-Dx versus A2780) was 6.6 and the IC50 ([26]; Homo sapiens, A2780/DX, 72 h, SRB assay, multidrug-resistant ovarian carcinoma, read-out: IC50 ± SD A2780-Dx) was 1.8 ± 0.4 µM. It also gave an IC50 [27] of 2.1 ± 0.5 µM.
